This note sets out measurements from patent US20070191420A1, “Kinase inhibitors” (Devgen NV, priority 2004, published 2007).

What all share (test): Fluorescence polarization (FP) PKC inhibition assay, Protein Kinase C Assay Kit, Red (Invitrogen)
Common to all, as to assay type: biochemical
(Fluorescence polarisation rises when a labelled molecule tumbles more slowly, as on binding a larger partner.)

Assay [1] concerns the target T1, PKC zeta (Homo sapiens, UniProt Q05513).
T1 construct: purchased Invitrogen 9232
T1 sequence (Q05513 1-592): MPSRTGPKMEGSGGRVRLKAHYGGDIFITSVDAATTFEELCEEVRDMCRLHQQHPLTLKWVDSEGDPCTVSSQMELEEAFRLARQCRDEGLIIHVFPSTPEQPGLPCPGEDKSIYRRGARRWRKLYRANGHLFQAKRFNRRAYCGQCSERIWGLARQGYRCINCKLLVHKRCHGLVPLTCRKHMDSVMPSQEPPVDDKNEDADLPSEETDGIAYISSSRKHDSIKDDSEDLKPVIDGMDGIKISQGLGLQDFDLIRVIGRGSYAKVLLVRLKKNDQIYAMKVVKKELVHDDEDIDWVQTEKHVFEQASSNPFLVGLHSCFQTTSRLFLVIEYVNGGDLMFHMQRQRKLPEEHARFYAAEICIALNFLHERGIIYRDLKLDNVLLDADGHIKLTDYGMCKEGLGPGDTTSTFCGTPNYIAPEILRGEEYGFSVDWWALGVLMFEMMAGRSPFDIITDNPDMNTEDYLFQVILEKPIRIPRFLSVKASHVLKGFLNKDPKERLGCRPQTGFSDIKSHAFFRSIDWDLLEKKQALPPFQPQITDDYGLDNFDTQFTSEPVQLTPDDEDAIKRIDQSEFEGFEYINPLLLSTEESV
To be noted: enzyme 20 ng/ml, ATP 2.5 μM, substrate […] 1 μM. Here is the method: (§1) To perform the assay, 2 μl of a solution of the compound to be tested in DMSO (at each concentration) was added to 6 μl of a solution of the enzyme in 10 mM HEPES, 5 mM dithiotreitol, 0.1% Triton X-100, pH 7,4.
(§2) After incubating for 30 minutes at room temperature, 4 μl of a mixture of ATP and the protein substrate in 60 mM HEPES (pH7.4), 15 mM MgCl2, 0.3 mM CaCl2, 0.06% NP40 was added.
(§3) After incubating for 80 minutes at room temperature, 3 μl of a mix solution of 500 mM EDTA (stop solution) and the Rhodamine-based PKC Red Tracer (from the Protein Kinase C Assay Kit) in BGG/phosphate buffer (pH7.4) with 0.02% NaN3 and 0.1% Triton X-100 was added and 5 μl of a the Anti-Phosphoserine antibody (also from the Protein Kinase C Assay Kit) in BGG/phosphate buffer (pH7.4) with 0.02% NaN3.
(§4) The results were fitted to a curve using the XL-Fit algorithm and IC50 values were calculated for each fitted curve, again using the XL-Fit algorithm.

Assay [2] deals with T2, PKC epsilon (Homo sapiens, UniProt Q02156).
T2 construct: purchased Invitrogen 6906
T2 sequence (Q02156 1-737): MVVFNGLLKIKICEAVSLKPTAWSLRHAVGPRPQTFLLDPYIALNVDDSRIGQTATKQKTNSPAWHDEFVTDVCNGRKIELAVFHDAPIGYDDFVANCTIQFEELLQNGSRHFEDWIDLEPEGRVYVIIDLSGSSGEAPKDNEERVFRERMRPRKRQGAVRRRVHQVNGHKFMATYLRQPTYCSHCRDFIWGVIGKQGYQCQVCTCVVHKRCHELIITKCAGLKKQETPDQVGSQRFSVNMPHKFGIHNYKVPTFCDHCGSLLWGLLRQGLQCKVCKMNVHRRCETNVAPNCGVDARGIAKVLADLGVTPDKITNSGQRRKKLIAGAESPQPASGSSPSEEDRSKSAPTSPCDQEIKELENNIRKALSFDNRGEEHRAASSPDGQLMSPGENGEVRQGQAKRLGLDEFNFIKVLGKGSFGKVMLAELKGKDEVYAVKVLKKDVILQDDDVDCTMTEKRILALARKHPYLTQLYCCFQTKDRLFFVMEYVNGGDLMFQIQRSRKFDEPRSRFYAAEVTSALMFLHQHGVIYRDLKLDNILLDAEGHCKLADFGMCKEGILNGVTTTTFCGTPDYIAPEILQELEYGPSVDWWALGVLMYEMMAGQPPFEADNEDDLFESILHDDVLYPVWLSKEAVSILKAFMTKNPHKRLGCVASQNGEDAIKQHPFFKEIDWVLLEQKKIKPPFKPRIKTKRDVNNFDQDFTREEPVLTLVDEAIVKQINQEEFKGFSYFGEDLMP
To be noted: enzyme 10 ng/ml, ATP 2.5 μM, substrate […] 1 μM. Here is the method: (§5) The substrate used was […]
as §1, §2, §3, §4

For assay [3], the target named is T3, PKC gamma (Homo sapiens, UniProt P05129).
T3 construct: purchased Invitrogen 9343
Particulars: enzyme 20 ng/ml, ATP 2.5 μM, substrate […] 1 μM. Here is the method:
as §5, §1, §2, §3, §4

The target in assay [4] is T4, PKC theta (Homo sapiens, UniProt Q04759).
T4 construct: purchased Invitrogen 7101
T4 sequence (Q04759 whole entry): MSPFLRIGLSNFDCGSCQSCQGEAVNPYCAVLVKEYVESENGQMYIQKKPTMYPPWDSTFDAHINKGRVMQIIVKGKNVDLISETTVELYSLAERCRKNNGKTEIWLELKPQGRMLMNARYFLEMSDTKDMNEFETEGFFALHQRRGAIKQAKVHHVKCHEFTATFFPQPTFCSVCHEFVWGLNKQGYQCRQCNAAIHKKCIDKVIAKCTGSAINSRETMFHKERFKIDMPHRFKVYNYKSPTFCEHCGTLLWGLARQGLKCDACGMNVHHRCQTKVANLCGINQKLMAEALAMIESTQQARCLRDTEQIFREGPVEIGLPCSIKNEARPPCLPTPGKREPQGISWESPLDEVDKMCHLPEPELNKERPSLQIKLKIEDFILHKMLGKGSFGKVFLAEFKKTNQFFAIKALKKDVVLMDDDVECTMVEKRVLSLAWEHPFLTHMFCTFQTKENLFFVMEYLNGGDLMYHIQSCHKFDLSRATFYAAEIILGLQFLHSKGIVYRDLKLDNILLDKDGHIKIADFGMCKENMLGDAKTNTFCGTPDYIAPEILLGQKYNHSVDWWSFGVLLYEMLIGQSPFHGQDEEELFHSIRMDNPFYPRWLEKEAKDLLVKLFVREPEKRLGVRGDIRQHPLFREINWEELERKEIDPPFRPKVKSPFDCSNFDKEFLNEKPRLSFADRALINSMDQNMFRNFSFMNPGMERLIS
Particulars: enzyme 20 ng/ml, ATP 2.5 μM, substrate […] 1 μM. The procedure:
as §5, §1, §2, §3, §4

The structures appear in SMILES notation. Counter-ions that a name gives are not always drawn.

With `NCc1ccc(C(=O)Nc2ccncn2)cc1` [Compound 21, 4-aminomethyl-N-pyrimidin-4-yl-benzamide dihydrochloric acid salt], the IC50 in assay [1] was greater than 100 µM; in assay [2] it was 34.4 µM; in assay [3], greater than 100 µM; in assay [4] it was 87.2 µM.

For the compound `CC(N)c1ccc(C(=O)Nc2ccncc2)cc1` (stereo not drawn) [Compound 23, 4-(1-amino-ethyl)-N-pyridin-4-yl-benzamide dihydrochloric acid salt], the IC50 in assay [1] is 22.1 µM; in assay [2], 1.21 µM; in assay [3] it was greater than 100 µM; in assay [4] it was 2.25 µM.

As for `CCC(N)c1ccc(C(=O)Nc2ccncc2)cc1` (stereo not drawn) [Compound 24, 4-(1-amino-propyl)-N-pyridin-4-yl-benzamide dihydrochloric acid salt], the IC50 in assay [1] was 25.4 µM; in assay [2] it was 0.65 µM; in assay [3] it was greater than 30 µM; in assay [4] it was 2.91 µM.

Take `CC(C)(C)CC(N)c1ccc(C(=O)Nc2ccncc2)cc1` (stereo not drawn) [Compound 25, 4-(1-amino-3,3-dimethyl-butyl)-N-pyridin-4-yl-benzamide dihydrochloric acid salt]: the IC50 in assay [1] was greater than 100 µM; in assay [2] it was 4.98 µM; in assay [3], greater than 100 µM; in assay [4] it was 12.2 µM.

Turning to `NC(c1ccc(C(=O)Nc2ccncc2)cc1)C1CC1` (stereo not drawn) [Compound 26], the half-maximal inhibitory concentration (IC50) in assay [1] came out at 41.5 µM; in assay [2], 0.72 µM; in assay [3] it was 35.9 µM; in assay [4] it was 3.9 µM.

Take `NC(c1ccc(C(=O)Nc2ccncc2)cc1)C1CCCC1` (stereo not drawn) [Compound 27]: the IC50 in assay [1] came out at 70 µM; in assay [2], 0.94 µM; in assay [3], 76 µM; in assay [4] it was 1.7 µM.

Turning to `NC(c1ccc(C(=O)Nc2ccncc2)cc1)C1CCCCC1` (stereo not drawn) [Compound 28], the IC50 is greater than 100 µM in assay [1], 2.6 µM in assay [2], greater than 100 µM in assay [3] and 7.7 µM in assay [4].

In the case of `NC1CCCc2cc(C(=O)Nc3ccncc3)ccc21` (stereo not drawn) [Compound 29], the IC50 in assay [1] is greater than 100 µM; in assay [2] it was 6.1 µM; in assay [3], greater than 100 µM; in assay [4] it was 13.7 µM.

For the compound `O=C(Nc1ccncc1)c1ccc(C2CCCN2)cc1` (stereo not drawn) [Compound 30, N-pyridin-4-yl-4-pyrrolidin-2-yl-benzamide dihydrochloric acid salt], the IC50 in assay [1] is greater than 100 µM; in assay [2], 9.8 µM; in assay [3], greater than 100 µM; in assay [4], 17.2 µM.

On to `O=C(Nc1ccncc1)c1ccc(C2CCCCN2)cc1` (stereo not drawn) [Compound 31, 4-piperidin-2-yl-N-pyridin-4-yl-benzamide dihydrochloric acid salt], for which the IC50 was greater than 100 µM in assay [1], 3.7 µM in assay [2], greater than 100 µM in assay [3] and 8.04 µM in assay [4].

`O=C(Nc1ccncc1)c1ccc2c(c1)CCNC2` [Compound 32, 1,2,3,4-tetrahydro-isoquinoline-6-carboxylic acid pyridinedin-4-yl-amide dihydrochloric acid salt]: the IC50 in assay [1] is greater than 100 µM; in assay [2] it was 30.5 µM; in assay [3], greater than 100 µM; in assay [4] it was 31.6 µM.

In the case of `O=C(Nc1ccncc1)c1ccc(C2=NCCN2)cc1` [Compound 33, 4-(4,5-dihydro-1H-imidazol-2-yl)-N-pyridin-4-yl-benzamide], the IC50 was greater than 100 µM in assay [1], 62 µM in assay [2], greater than 100 µM in assay [3] and 53.5 µM in assay [4].

For the compound `O=C(Nc1ccncc1)c1ccc(C2=NCCCN2)cc1` [Compound 34, N-pyridin-4-yl-4-(1,4,5,6-tetrahydro-1H-pyrimidin-2-yl)-benzamide], the IC50 was greater than 100 µM in assay [1], 19.5 µM in assay [2], greater than 100 µM in assay [3] and 75 µM in assay [4].

For `NC(c1ccccc1)c1ccc(C(=O)Nc2ccncc2)cc1` (stereo not drawn) [Compound 35, 4-(1-amino-phenyl-methyl)-N-pyridin-4-yl-benzamide], the IC50 in assay [1] is greater than 100 µM; in assay [2], 8.04 µM; in assay [3], greater than 100 µM; in assay [4] it was 11.3 µM.

Consider `NC(c1ccc(F)cc1)c1ccc(C(=O)Nc2ccncc2)cc1` (stereo not drawn) [Compound 36, 4-[1-amino-(4-fluorophenyl)-methyl]-N-pyridin-4-yl-benzamide dihydrochloric acid salt], for which the IC50 was greater than 100 µM in assay [1], 9.5 µM in assay [2], greater than 100 µM in assay [3] and 28.9 µM in assay [4].

For the compound `COc1ccc(C(N)c2ccc(C(=O)Nc3ccncc3)cc2)cc1` (stereo not drawn) [Compound 37, 4-[1-amino-(4-methoxyphenyl)-methyl]-N-pyridin-4-yl-benzamide], the IC50 in assay [1] is greater than 100 µM; in assay [2], 18.7 µM; in assay [3], greater than 100 µM; in assay [4], 80.3 µM.

Turning to `CC(N)c1ccc(C(=O)Nc2ccncc2)c2ccccc12` (stereo not drawn) [Compound 38, 4-(1-amino-ethyl)-naphthalene-1-carboxylic acid pyridinedin-4-ylamide dihydrochloric acid salt], the IC50 in assay [1] was 6.4 µM; in assay [2], 2.5 µM; in assay [3], greater than 100 µM; in assay [4] it was 7.8 µM.

Take `CC(N)c1ccc(C(=O)Nc2ccnc3[nH]ccc23)cc1` (stereo not drawn) [Compound 41, 4-(1-amino-ethyl)-N-(1H-pyrrolo[2,3pyridinedin-4-yl)-benzamidedihydrochloric acid salt]: the IC50 in assay [1] is greater than 100 µM; in assay [2], 0.4 µM; in assay [3], 11.3 µM; in assay [4], 0.77 µM.

Take `NC(c1ccc(C(=O)Nc2ccnc3[nH]ccc23)cc1)C1CCCC1` (stereo not drawn) [Compound 42]: the IC50 in assay [1] is greater than 100 µM; in assay [2], 0.3 µM; in assay [3], 17.3 µM; in assay [4] it was 0.63 µM.

For `O=C(Nc1ccnc2[nH]ccc12)c1ccc2c(c1)CCNC2` [Compound 43], the IC50 is greater than 100 µM in assay [1], 9.9 µM in assay [2], 21.8 µM in assay [3] and 8.6 µM in assay [4].

Turning to `O=C(Nc1ccnc2[nH]ccc12)c1ccc(C2CCCCN2)cc1` (stereo not drawn) [Compound 44, 4-piperidin-2-yl-N-(1H-pyrrolo[2,3pyridinedin-4-yl)-benzamidedihydrobromic acid salt], the IC50 is greater than 100 µM in assay [1], 1.6 µM in assay [2], 30.7 µM in assay [3] and 2.2 µM in assay [4].

By IC50 is commonly meant the point on the concentration scale where inhibition reaches its midpoint.
